The values below are quoted from earlier work in US20030171386A1, “Small molecules for the treatment of abnormal cell growth” (Pfizer Inc., priority 2001, published 2003).

Data set [1] deals with transplanted human mammary carcinoma, which expresses epidermal growth factor receptor tyrosine kinase (EGFR). Conditions: EGFR-expressing human mammary carcinoma in athymic nude mice; cited from earlier work.
The subject of data set [2] is another carcinoma, which does not express the EGF receptor. Conditions: carcinoma not expressing the EGF receptor; cited from earlier work.

As to `O=CN/C=C/c1cc(O)ccc1O` [erbstatin], the tumor growth result in data set [1] is “selectively attenuates the growth”; in data set [2] it was “without effect on the growth”.
